Test results reported in ChEMBL document CHEMBL4842331, “Targeted Discovery of the Polyene Macrolide Hexacosalactone A from Streptomyces by Reporter-Guided Selection of Fermentation Media” (J Nat Prod, 2021).
Values after ≈ are worked out from the molar mass of the structure shown. Active and inactive are the calls of the source. The calls are words filed in the database; no cut-off is given here.

Experiments:
[1] = system: Phytophthora capsici; test: Antifungal activity against Phytophthora capsici assessed as inhibition of fungal growth at 20 ug/disk by paper disk diffusion method; type: functional, organism-based; settings: dose 20.0 µg
[2] = system: K562; test: Cytotoxicity against human K562 cells assessed as reduction in cell viability by MTT assay; type: functional, cell-based
[3] = system: Pseudomonas aeruginosa; test: Antibacterial activity against Pseudomonas aeruginosa PAO1 assessed as inhibition of bacterial growth at 20 ug/disk by paper disk diffusion method; type: functional, organism-based; settings: dose 20.0 µg
[4] = system: Valsa ambiens; test: Antifungal activity against Valsa ambiens assessed as inhibition of fungal growth at 20 ug/disk by paper disk diffusion method; type: functional, organism-based; settings: Cytospora leucosperma; dose 20.0 µg
[5] = system: Rhizoctonia solani; test: Antifungal activity against Rhizoctonia solani assessed as inhibition of fungal growth at 20 ug/disk by paper disk diffusion method; type: functional, organism-based; settings: dose 20.0 µg
[6] = system: Escherichia coli; test: Antibacterial activity against Escherichia coli DH5alpha assessed as inhibition of bacterial growth at 20 ug/disk by paper disk diffusion method; type: functional, organism-based; settings: DH5[alpha], dose 20.0 µg
[7] = system: MDA-MB-231; test: Cytotoxicity against human MDA-MB-231 cells assessed as reduction in cell viability by MTT assay; type: functional, cell-based
[8] = system: Mycolicibacterium smegmatis; test: Antibacterial activity against Mycobacterium smegmatis mc2 155 assessed as inhibition of bacterial growth at 20 ug/disk by paper disk diffusion method; type: functional, organism-based; settings: dose 20.0 µg
[9] = system: Salmonella typhimurium; test: Antibacterial activity against Salmonella enterica serovar typhimurium UK-1X8956 assessed as inhibition of bacterial growth at 20 ug/disk by paper disk diffusion method; type: functional, organism-based; settings: Salmonella enterica subsp. enterica serovar Typhimurium, dose 20.0 µg
[10] = system: Alternaria alternata; test: Antifungal activity against Alternaria alternata assessed as inhibition of fungal growth at 20 ug/disk by paper disk diffusion method; type: functional, organism-based; settings: dose 20.0 µg
[11] = system: Staphylococcus aureus; test: Antibacterial activity against Staphylococcus aureus ATCC 25923 assessed as inhibition of bacterial growth by paper disk diffusion method; type: functional
[12] = system: NCI-H1299; test: Cytotoxicity against human NCI-H1299 cells assessed as reduction in cell viability by MTT assay; type: functional, cell-based
[13] = system: Botryosphaeria dothidea; test: Antifungal activity against Botryosphaeria dothidea assessed as inhibition of fungal growth at 20 ug/disk by paper disk diffusion method; type: functional, organism-based; settings: dose 20.0 µg
[14] = system: Proteus vulgaris; test: Antibacterial activity against Proteus vulgaris CPCC 160013 assessed as inhibition of bacterial growth by paper disk diffusion method; type: functional

In the case of `CO[C@@H]1C[C@H](O)[C@@H](C)[C@H](O)[C@@H](C)C[C@@H](C)C(=O)C(C)[C@H](C(C)C)OC(=O)/C(C)=C/C=C/C(C)=C/C=C/C(C)=C\C[C@H](OC(=O)/C=C/C(=O)NC2=C(O)CCC2=O)[C@@H]1C` (some centres undefined), the Activity [1] is reported as “inactive”, the IC50 [2] is reported as greater than 20 µM and the Activity [3] is reported as “inactive”. The Activity [4] was “inactive”, the Activity [5] was “inactive” and the Activity [6] was “inactive”. The IC50 [7] was greater than 20 µM, the Activity [8] was “inactive” and the Activity [9] was “inactive”. The Activity [10] was “inactive”, the MIC [11] was 12.5 µg/mL (≈ 15.4 µM) and the IC50 [12] was greater than 20 µM. The Activity [13] was “inactive” and the MIC [14] was 12.5 µg/mL (≈ 15.4 µM).
